# In patent publication US20030165853A1, “Antisense imaging of gene expression of the brain in vivo” (The Regents of the University of California Office of …, priority 2000, published 2003):
# Key:
# [1] = system: human HD exon 1; assay: Translation arrest (combined in vitro transcription/translation of HD exon 1); format: biochemical; conditions: 5-50 μM antisense agent, [3H]-leucine incorporation
# Method: The hybridization of the antisense HD-PNA to the HD transcript was determined using a combination of transcription and translation that mimics in vivo conditions as previously described (Boado et al. (2000) J. Pharmacol. Exp. Ther., 295: 239-243). The cDNA containing the human HD exon 1 was sublconed into the Bluescript KS+plasmid, between either T3 or T7 RNA polymerase promoters, and this plasmid is designated clone 839, as described previously (Id). Transcription/translation of human HD exon 1 clone 839 was performed with 0.2 μg clone 839 plasmid DNA in the presence of T3 RNA polymerase, 5 μCi [^3H]-leucine, and 50% v/v rabbit reticulocyte lysate using the T3-TNT translation system (Promega, Madison, Wis.), as described previously (Id). Dose response studies with newly synthesized PNAs were performed and compared with a positive control antisense phosphodiester-ODN, designated ODN-III, as described (Id). Samples were incubated for 30 min at 30 ° C., and incorporation of [^3H]-leucine into HD exon 1 protein was analyzed by trichloroacetic acid (TCA) precipitation, and data expressed as percent of control, which lacked any added PNA or ODN. The HD exon 1 insert is 10% of the total plasmid, or about […] per 12.5 μL reaction. Since the TNT produces 10-30 RNA copies per plasmid, the final concentration of the HD RNA in the TNT reaction is approximately 1 μM. […]
# [2] = mouse, in vivo
# Method: (§1) Adult male BALB/c mice were divided into 5 groups of 3 mice each for the pharmacokinetic study. The mice were anesthetized with an intraperitoneal injection of ketamine (100 mg/kg) and xylazine (2 mg/kg). The injection solution contained 5 μCi of [^125I]-HD-PNA with or without conjugation to 2 μg of 8D3-SA in 0.01 M PBS/pH 7.4, and a total volume of 50 μl was administered via the jugular vein of each mouse. Groups of 3 mice each were sacrificed at 0.25, 2, 5, 15, and 60 min after the isotope injection and arterial blood was sampled from the aorta. After spinning the blood samples, the collected supernatant (serum) was counted for [^125I]-radioactivity using a γ-counter (Beckman Instruments, Inc., Fullerton, Calif.). An aliquot of serum was precipitated with cold 10% TCA, and the fraction of total serum radioactivity that was TCA precipitated was determined. The brain and peripheral organs (liver, kidney, heart, lung, and spleen) were removed from each mouse at 60 min after the isotope administration and total [^125I]-radioactivity in the organ was measured.
# The organ permeability-surface area (PS) product of either the unconjugated [^125I]-HD-PNA, or the [^125I]-HD-PNA conjugated to 8D3/SA, was calculated as follows: [formula] […]
# The brain delivery of the compound was expressed as percentage of injected dose (ID)/g brain, and was calculated as follows: […]
# [3] = system: HD mRNA; assay: HD RNase protection assay; format: binding, human; conditions: RNase T1/A digestion, PAGE autoradiography
# Method: The sense RNA was synthesized with T3 RNA polymerase following linearization of the plasmid with EcoRI. The transcribed RNA was radiolabeled with [^32Pα]ATP to a specific activity of 0.22 μCi/pmol, as previously described (Boado and Pardridge (1994) Bioconj. Chem., 6: 406-410). For the RNAse protection assay, 0.6 pmol of biotinylated HD-PNA or biotinylated luciferase-PNA, with or without conjugation to 6.4 pmol of MAb-SA, was added to 10^5 CPM of [^32P]-labeled sense HD RNA (0.2 pmol) in 3 μl buffer (80 mM NaCl, 7 mM phosphate buffer, pH=7.5, 0.1% BSA), and annealed for 30 minutes at 42° C. Then 20 units RNAse Ti and 2.5 μg RNAse A were added to the samples in 17 μl of RNAse digestion buffer (0.3 M NaCl, 10 mM TRIS pH=7.5, 4 mM EDTA, 0.02% tRNA, 0.02% BSA) and incubated for 30 min at 37° C. RNA fragments were analyzed by 7 M urea/20% polyacrylamide gel electrophoresis following by autoradiography as described by Pardridge et al. (1995) Proc. Natl. Acad. Sci., USA, 92:5592-5596. Labeled RNA and PNAs were heat denatured for 2 minutes at 95° C. and then incubated on ice for 2 minutes immediately before the experiment or conjugation to MAb-SA.
# [4] = mouse, in vivo, iv
# Method: as §1
# Pharmacokinetic parameters were determined by fitting the serum TCA-precipitable radioactivity data to a biexponential equation with a weighting factor of [1/A(t)]^2 using a derivative-free nonlinear regression analysis (PARBMDP, Biomedical Computer P-Series, developed at UCLA Health Science Computing Facilities).
# where A(t)=% injected dose (ID)/ml serum at a given time (t).
substance,measurement,setting,value
"[^125I]-PNA: biotinylated 16-mer PNA complementary to nucleotides −1 to +15 of human HD exon 1, Tyr-Lys, amidated carboxyl terminus; radioiodinated (CTTCCATTTTACCAAC; all peptide nucleic acid (PNA); biotinylated, Tyr-Lys added, amidated C-terminus, radioiodinated, positions not given here)",inhibition of cell free translation of HD exon 1 protein,[1],inhibits the cell free translation
same,BBB PS product,[2],< 0.3 µL/min/g
same,hybridization to HD mRNA (RNase protected fragment),[3],specifically hybridizes to the target mRNA
same,A1,[4],32 ± 2 % ID/ml
same,A2,[4],6.3 ± 0.7 % ID/ml
same,AUC (60 min),[4],308 ± 36 % ID · min/ml
same,AUC (∞),[4],399 ± 49 % ID · min/ml
same,K1,[4],0.37 ± 0.04 min⁻¹
same,K2,[4],0.0206 ± 0.0014 min⁻¹
same,VSS,[4],0.374 ± 0.042 L/kg
same,t½^1,[4],1.9 ± 0.2 min
same,t½^2,[4],34 ± 3 min
